According to patent publication US12391647B2, “Benzamide compound and preparation method, use, and pharmaceutical composition thereof” (INSTITUTE OF MATERIA MEDICA, CHINESE ACADEMY OF MEDICAL …, priority 2018, dated 2025):

The molecules below were run on human prostate cancer cell DU145 (assay: MTT assay, survival rate of tumor cells (antiproliferative activity)). Conditions: DU-145, 72 h, read-out: Antiproliferative activity against human prostate cancer cell DU145, IC50.
Assay type: cell-based
Procedure: DU145 cells (human prostate cancer cells) in logarithmic growth phase were digested with 0.25% trypsin-EDTA to prepare single cell suspension, which was inoculated into 96-well plate overnight according to 1500 cells/well/100 μL, and fresh medium containing different concentrations of compounds to be tested and corresponding solvent control was added, and 100 μL (DMSO final concentration <0.1%) was added to each well, and the 96-well plate was further cultured at 37° C. for 72 h. 20 μL of freshly prepared PBS solution containing 5 mg/mL MTT was added to each well, and the 96-well plate was further cultured for 4 h. After the supernatant was discarded, 180 μL of DMSO was added to each well to dissolve the MTT formazan precipitate. After the 96-well plate was shaked and mixed by a micro oscillator, the optical density (OD) at the detection wavelength of 570 nm was measured. With DMSO-treated tumor cells as the control group, the inhibition rate on the growth of tumor cells of the compound to be tested was calculated from the following formula, and the IC50 was calculated according to the median-effect equation. Inhibition rate (%)=(average OD value of control group-average OD value of dosing group)/average OD value of control group×100%

SMILES	IC50
Cc1ccc(S(=O)(=O)Nc2cccc(C(=O)NCc3cccnc3)c2)cc1 [Example 2, 3-((4-methylphenyl)sulfonamido)-N-(pyridin-3-ylmethyl)benzamide]	700 ± 150 nM
Cc1ccc(S(=O)(=O)Nc2cc(C(=O)NCc3cccnc3)ccc2F)cc1 [Example 3, 4-fluoro-3-((4-methylphenyl)sulfonamido)-N-(pyridin-3-ylmethyl) benzamide]	790 ± 130 nM
Cc1ccc(S(=O)(=O)Nc2cc(C(=O)NCc3cccnc3)ccc2Cl)cc1 [Example 4, 4-chloro-3-((4-methylphenyl)sulfonamido)-N-(pyridin-3-ylmethyl) benzamide]	800 ± 120 nM
Cc1ccc(S(=O)(=O)Nc2cc(C)cc(C(=O)NCc3cccnc3)c2)cc1 [Example 7, 3-methyl-5-((4-methylphenyl)sulfonamido)-N-(pyridin-3-ylmethyl)benzamide]	340 ± 10 nM
Cc1ccc(S(=O)(=O)Nc2cc(Cl)cc(C(=O)NCc3cccnc3)c2)cc1 [Example 10, 3-chloro-5-((4-methylphenyl)sulfonamido)-N-(pyridin-3-ylmethyl)benzamide]	340 ± 10 nM
Cc1ccc(S(=O)(=O)Nc2ccc(C)c(C(=O)NCc3cccnc3)c2)cc1 [Example 11, 2-methyl-5-((4-methylphenyl)sulfonamido)-N-(pyridin-3-ylmethyl)benzamide]	2000 ± 30 nM
COc1cccc(S(=O)(=O)Nc2cc(C(=O)NCc3cccnc3)ccc2C)c1 [Example 14, 3-((3-methoxyphenyl)sulfonamido)-4-methyl-N-(pyridin-3-ylmethyl)benzamide]	2500 ± 20 nM
CCOc1ccc(S(=O)(=O)Nc2cc(C(=O)NCc3cccnc3)ccc2C)cc1 [Example 15, 3-((4-ethoxyphenyl)sulfonamido)-4-methyl-N-(pyridin-3-ylmethyl)benzamide]	860 ± 60 nM
Cc1ccc(S(=O)(=O)Nc2cc(C(=O)NCc3cccnc3)ccc2C)cc1C [Example 16, 3-((3,4-dimethylphenyl)sulfonamido)-4-methyl-N-(pyridin-3-ylmethyl)benzamide]	970 ± 30 nM
Cc1ccc(C(=O)NCc2cccnc2)cc1NS(=O)(=O)c1ccc(Cl)cc1 [Example 21, 3-((4-chlorophenyl)sulfonamido)-4-methyl-N-(pyridin-3-ylmethyl)benzamide]	930 ± 50 nM
Cc1ccc(C(=O)NCc2cccnc2)cc1NS(=O)(=O)c1ccc(C(C)C)cc1 [Example 22, 3-((4-isopropylphenyl)sulfonamido)-4-methyl-N-(pyridin-3-ylmethyl)benzamide]	1000 ± 160 nM
Cc1ccc(C(=O)NCc2cccnc2)cc1NS(=O)(=O)c1ccc2c(c1)CCC2 [Example 25, 3-((2,3-dihydro-1H-indene)-5-sulfonamido)-4-methyl-N-(pyridinylmethyl)benzamide]	900 ± 40 nM
Cc1ccc(C(=O)NCc2cccnc2)cc1NS(=O)(=O)c1ccc2c(c1)OCO2 [Example 26, 3-(benzo[d][1,3]dioxole-5-sulfonamido)-4-methyl-N-(pyridin-3-ylmethyl)benzamide]	610 ± 140 nM
Cc1ccc(C(=O)NCc2cccnc2)cc1NS(=O)(=O)c1ccc2c(c1)CCO2 [Example 27, 3-((2,3-dihydrobenzofuran)-5-sulfonamido)-4-methyl-N-(pyridin-3-ylmethyl)benzamide]	1200 ± 10 nM
Cc1ccc(C(=O)NCc2cccnc2)cc1NS(=O)(=O)c1ccc2c(c1)OCCO2 [Example 28, 3-((2,3-dihydrobenzo[b][1,4]dioxine)-6-sulfonamido)-4-methyl-N-(pyridin-3-ylmethyl)benzamide]	420 ± 10 nM
Cc1ccc(C(=O)NCc2cccnc2)cc1NS(=O)(=O)c1ccc2ccccc2c1 [Example 29, 4-methyl-3-(naphthalene-2-sulfonamido)-N-(pyridin-3-ylmethyl)benzamide]	1000 ± 70 nM
COc1ccc(S(=O)(=O)Nc2cc(C(=O)NCc3cccnc3)ccc2C)cn1 [Example 32, 3-((6-methoxypyridine)-3-sulfonamido)-4-methyl-N-(pyridin-3-ylmethyl)benzamide]	400 ± 20 nM
